Test results: patent US20220089540A1 (Board of Trustees of Michigan State University, priority 2019, published 2022)
pKd: −log10 of the molar value.

Tests used:
[1] = system: lung tumors of A/J mice; test: Vinyl carbamate-induced (Kras) lung cancer in A/J mice; format: in vivo, mouse
Protocol: To evaluate the effects of LG268, with and without other chemotherapeutic agents, female A/J mice were injected with a weekly dose of vinyl carbamate for twelve weeks to induce lung tumors of between 0.5 and 1 mm in diameter. A/J mice were randomized and treated with either control diet or rexinoids fed in the diet (100 mg/kg diet). One week after the treatment diets started, mice were injected with 6 cycles of carboplatin (50 mg/kg i.p.), paclitaxel (15 mg/kg i.p.), or a combination thereof, given every other week. At the end of the studies, lungs were harvested en bloc and inflated with buffered formalin (NBF); liver and plasma were collected to determine drug levels and lipid concentrations. Step sectioning (200 μm between sections) of the left lung started at the medial hilar surface, and sections were stained with hematoxylin and eosin. The number, size, and histopathology of randomized, coded tumors were assessed on two separate sections of each lung by two independent investigators. Classification of the tumors as low, medium, or high grade was based on previously published histologic and nuclear criteria. The efficacy of other rexinoids (e.g., MSU 42011) for treatment of lung cancer, alone and in combination with standard of care chemotherapy (carboplatin and paclitaxel), is currently being evaluated in this preclinical model.

[2] = system: E18-14C-27C cancer cells; test: PD-1 and PD-L1 expression in E18-14C-27C cancer cells; format: cell-based, mouse; details: 72 hours
Protocol: RAW 264.7 mouse macrophage-like (ATCC) and E18-14C-27 (Wu et al., Cancer Res. 62, 6376-6380 (2002)) cells were cultured in DMEM supplemented with 10% fetal bovine serum (FBS). RAW 264.7 cells were cultured at 50000/well in a 6 well plate for 24 hours to determine PD-L1 levels. E18-14C-27 cells were cultured for 72 hours in the presence of LG268 for protein levels. Conditioned media was collected from E18-14C-27 at 60-70% confluence for 24 hours; media was then collected and centrifuged at 900 rpm for 5 minutes to eliminate any cell debris.
To determine if these changes occurred in the tumor cells or in the macrophages, E18-14C-27C and RAW 264.7 cell lines were treated with LG268. […] Similar observations were made in human THP-1 monocytic cells stimulated with conditioned media from human HER2 positive SK-BR-3 breast cancer cells and treated with LG268 or bexarotene for 24 hours (FIG. 5E-5F).

[3] = system: tumors of PyMT mice; test: PyMT mouse model of triple negative breast cancer, treatment until endpoint; format: in vivo
Protocol: To determine if the immune modulation induced by LG268 treatment in MMTV-Neu mice could be extended to a model of triple negative breast cancer (TNBC), the inventors repeated the in vivo studies in PyMT mice. PyMT mice with a tumor volume of 32-64 mm^3 were treated with LG268 (100 mg/kg of diet) or with a control diet until the tumor burden met maximum defined endpoints allowed by the IACUC-approved animal protocol (individual tumor volume <520 mm^3). In mice receiving the control diet, these tumors progressed extremely rapidly so that the average age to reach maximum tumor volume was 31 days.

[4] = system: inducible nitric oxide synthase (iNOS); test: iNOS suppression / NO assay in LPS-stimulated macrophages or RAW264.7 cells (Griess reaction); format: cell-based, mouse; details: at 100 nM; comparators of Table 3
Outline: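 RAW264.7 cells or macrophages incubated with rexinoids (300 nM, or 100 nM/300 nM, or a concentration series) and stimulated with 1–2 ng/ml LPS for 24 h. Nitric oxide released into medium measured by Griess reaction; values given as percent of LPS-stimulated control, % inhibition, or IC50.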

[5] = Toxicity in A/J mice with lung tumors fed rexinoids plus carboplatin and paclitaxel; format: in vivo; details: 100 mg/kg diet, 7 weeks
Protocol: A/J mice with lung tumors (detected by ultrasound) were fed rexinoids in their diets (at 100 mg/kg diet) and injected twice every other week with carboplatin and paclitaxel.

[6] = target: RXR; details: read-out: Kd for RXR; cited from earlier work
[7] = system: FOXP3; test: FOXP3 mRNA in isolated spleen CD4 T cells skewed towards Tregs; details: LG268 added for 4 days
[8] = system: mammary gland tumors of MMTV-Neu mice; test: MMTV-Neu mouse model of HER2 positive breast cancer, rexinoid in diet
[9] = 100 mg/kg diet, LG268 5 days, bexarotene 10 days, western blot

## Cc1cc2c(cc1C1(c3ccc(C(=O)O)cn3)CC1)C(C)(C)CCC2(C)C [LG268]
[1]; LG268 100 mg/kg diet 12 weeks, C 50 mg/kg i.p., P 15 mg/kg i.p., 6 injections, control 3.4±0.25
  average number of lung tumors: […]
[1]; control 0.58±0.09 mm^3
  average tumor size: […]
[1]; control 1.99±0.34 mm^3
  average tumor burden: […]
[1]; control 71%
  percentage of high grade tumors: […]
[1]; mouse, in vivo
  decrease of average tumor size vs controls: 59%
  diminution of average tumor burden vs control: 74%
[2]; flow cytometry
  PD-L1 expression: did not change
[2]; western blot
  PD-1 expression: decreased
[3]; 100 mg/kg diet, control 31 days
  average survival (time to maximum tumor volume): […]
[3]; at endpoint
  levels of CD206 and p-STAT3 in whole lysates of the tumors: No differences
[3]; immunohistochemistry at endpoint
  cells undergoing apoptosis (cleaved caspase 3): higher number of cells undergoing apoptosis
[3]; western blot at endpoint
  p-STAT1 in whole lysates of tumors: tendency for lower levels
[4]
  iNOS: […]
[5]
  toxicity findings (liver, triglycerides, cholesterol, fur): hepatomegaly, with elevated triglycerides and cholesterol
[6]
  pKd: […]
[7]
  reduction of FOXP3 mRNA expression vs vehicle control: 40%
[8]; 100 mg/kg diet, 5 days
  PD-1 expression in tumors vs control: lower
[8]; 100 mg/kg diet, LG268 5 days, CW-V-125 10 days, western blot and/or immunohistochemistry
  PD-L1 expression in tumors vs control: significantly higher
[8]; 100 mg/kg diet, LG268 5 days, bexarotene 10 days, control 1.9%
  myeloid derived suppressor cells (CD45+, CD11b+, Gr1+) in tumors: […]
[8]; 100 mg/kg diet, LG268 5 days, bexarotene 10 days, control diet 3.2%
  mammary tumor size (tumor weight as percentage of total body weight): 1.1 % of total body weight
[8]; 100 mg/kg diet, LG268 5 days, bexarotene 10 days, immunohistochemistry
  cleaved caspase 3 in tumors: […]
[8]; [9]
  reduction of CD206 expression in tumor lysates: 65%
  reduction of p-STAT1 expression in whole tumor lysates: 80%
[8]; 100 mg/kg diet, control 27.5%
  activated CD4 T cells (CD45+, CD3+, CD4+, CD25+) in tumors: 13.0%
[8]; 100 mg/kg diet, western blot
  expression of p-STAT3 or p-STAT5 in tumor lysates: no changes
[8]; CD31 immunohistochemistry
  caliber of the vessels in the tumors: reduced
[8]; immunohistochemistry
  FOXP3 expression in tumors: decreased
[8]; mouse, in vivo
  time to complete regression of the tumors: […]
